Source: article PMC9114115, “Property space mapping of Pseudomonas aeruginosa permeability to small molecules” (Scientific Reports, 2022)
Where a name gives a salt, the structure may show the parent alone.

What follows are compounds tested on P. aeruginosa PAO1 cells (assay: LC–MS quantification of intracellular accumulation, PAO1). Conditions: 1 min incubation, 10-80 µM.
Procedure: (§1) PAO1-Pore and PΔ3-Pore were grown at 37 °C overnight with shaking at 225 rpm in 50 mM MOPS-M9 (pH 7.2) Minimal Medium supplemented with 1% glycerol[42],[43].
(§2) The next day, cells were sub-cultured (1.5:100) in fresh MOPS-M9 medium and grown for 16 h. The cultures were then split into two flasks and one of them was induced with 0.1 mM IPTG. Cells incubated for additional 4 h until OD600 reached ~ 1.0 and harvested by centrifugation at 3,275xg for 20 min in RT, washed and concentrated 10X in the spent medium. Assays were performed in 96-well plates in a final volume of […]. Cells were incubated with 10, 20, 40, 80 µM of compounds and after 1- and 40-min incubation at RT, 100 µL cell aliquots were collected by vacuum filtration onto 1.0 µm Glass Fiber Type B filters. For no-cell controls, compounds were diluted to 10, 20, 40, 80 µM final concentration in the same medium, incubated for 1 min and 40 min and filtered onto the same plates. The cell loaded and cell-free filters were dried, removed from plates and placed into 100% methanol at -80 °C for at least 10 min. Filter-bound material was extracted by water bath sonication for 1 min. Cell and filter debris were separated by ultracentrifugation at 45,000 rpm (TLA55 rotor, Beckman) for 8 min at 16 °C and the pellet re-extracted with 80% methanol in water by sonication for 15 min followed by ultracentrifugation at the same conditions. Supernatants from two extractions were combined. For the compound quantification, 5 µL of solution was analyzed in triplicate.
(§3) Calibration curves for MS analyses of compounds were generated in the same experiment by mixing compound at increasing concentrations with the sonicated PAO1 cell extracts. […] Azithromycin was used as a positive control in all experiments.
(§4) Samples were processed in positive ion mode. An Eclipse plus C18 Rapid Resolution HD column (1.8 μm, 2.1 × 50 mm, Agilent, USA) was used for separation. The flow rate was 0.6 mL/min using the following gradient: 0 to 1 min (0- 20% ACN), 1 to 4 min (20- 80% ACN), 4 to 5.1 min (80–100% ACN), 5.1 to 6.30 (100% ACN). Solvents contained 0.1% formic acid to promote positive ion formation in the electrospray. […] Data were analyzed using Agilent Masshunter workstation quantitative analysis v. B.10 software.
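Further: slope of accumulation versus external concentration fitted as a line through zero.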

In order of rising “Concentration slopes of accumulation, PAO1_1 min” value:
1. CC[C@H]1CN2CCc3cc(OC)c(OC)cc3[C@@H]2C[C@@H]1C[C@H]1NCCc2cc(OC)c(OC)cc21.Cl.Cl [OU-0032504, Emetine DIHCl]  0.61
2. CNC(=C[N+](=O)[O-])NCCSCc1ccc(CN(C)C)o1 [OU-0000840, Ranitidine HCl]  3.41
3. CC(C)NCC(O)c1ccc(NS(C)(=O)=O)cc1 (stereo not shown) [OU-0032507, Sotalol HCl]  4.31
4. NC(N)=Nc1nc(CSCCC(N)=NS(N)(=O)=O)cs1 [OU-0000841, Famotidine]  4.64
5. COc1ccc2cc1Oc1ccc(cc1)C[C@H]1c3cc(c(OC)cc3CCN1C)Oc1c(OC)c(OC)cc3c1[C@H](C2)N(C)CC3 [OU-0032506, Tetrandrine]  5.68

Same assay, conditions: 40 min incubation, 10-80 µM

In order of rising “Concentration slopes of accumulation, PAO1_40 min” value:
1. CC[C@H]1CN2CCc3cc(OC)c(OC)cc3[C@@H]2C[C@@H]1C[C@H]1NCCc2cc(OC)c(OC)cc21.Cl.Cl [OU-0032504, Emetine DIHCl]  0.65
2. CNC(=C[N+](=O)[O-])NCCSCc1ccc(CN(C)C)o1 [OU-0000840, Ranitidine HCl]  2.83
3. CC(C)NCC(O)c1ccc(NS(C)(=O)=O)cc1 (stereo not shown) [OU-0032507, Sotalol HCl]  4.58
4. NC(N)=Nc1nc(CSCCC(N)=NS(N)(=O)=O)cs1 [OU-0000841, Famotidine]  5.28
5. COc1ccc2cc1Oc1ccc(cc1)C[C@H]1c3cc(c(OC)cc3CCN1C)Oc1c(OC)c(OC)cc3c1[C@H](C2)N(C)CC3 [OU-0032506, Tetrandrine]  5.34

What follows are compounds tested on P. aeruginosa PAO1-Pore cells (assay: LC–MS quantification of intracellular accumulation, PAO1-Pore). Conditions: 1 min incubation, 10-80 µM.
Procedure: as §1, §2, §3, §4

In order of rising “Concentration slopes of accumulation, PAO1-Pore_1 min” value:
1. CC[C@H]1CN2CCc3cc(OC)c(OC)cc3[C@@H]2C[C@@H]1C[C@H]1NCCc2cc(OC)c(OC)cc21.Cl.Cl [OU-0032504, Emetine DIHCl]  1.29
2. NC(N)=Nc1nc(CSCCC(N)=NS(N)(=O)=O)cs1 [OU-0000841, Famotidine]  3.94
3. CNC(=C[N+](=O)[O-])NCCSCc1ccc(CN(C)C)o1 [OU-0000840, Ranitidine HCl]  4.44
4. CCN1CCCC1CNC(=O)c1cc(S(N)(=O)=O)ccc1OC.Cl (stereo not shown) [OU-0032505, Sulpiride HCl]  7.04
5. CC(C)NCC(O)c1ccc(NS(C)(=O)=O)cc1 (stereo not shown) [OU-0032507, Sotalol HCl]  8.24
6. COc1ccc2cc1Oc1ccc(cc1)C[C@H]1c3cc(c(OC)cc3CCN1C)Oc1c(OC)c(OC)cc3c1[C@H](C2)N(C)CC3 [OU-0032506, Tetrandrine]  10.07
7. O=C1NC[C@@H](CCC2CCCCC2)N[C@H]1Cc1cc(F)cc(F)c1 [OU-0032508]  20.38
8. CCCC[C@H]1CNC(=O)[C@H](Cc2cc(F)cc(F)c2)N1 [OU-0032509]  23.40

Same assay, conditions: 40 min incubation, 10-80 µM

In order of falling “Concentration slopes of accumulation, PAO1-Pore_40 min” value:
1. O=C1NC[C@@H](CCC2CCCCC2)N[C@H]1Cc1cc(F)cc(F)c1 [OU-0032508]  23.85
2. CCCC[C@H]1CNC(=O)[C@H](Cc2cc(F)cc(F)c2)N1 [OU-0032509]  20.61
3. CCN1CCCC1CNC(=O)c1cc(S(N)(=O)=O)ccc1OC.Cl (stereo not shown) [OU-0032505, Sulpiride HCl]  7.90
4. COc1ccc2cc1Oc1ccc(cc1)C[C@H]1c3cc(c(OC)cc3CCN1C)Oc1c(OC)c(OC)cc3c1[C@H](C2)N(C)CC3 [OU-0032506, Tetrandrine]  7.33
5. CNC(=C[N+](=O)[O-])NCCSCc1ccc(CN(C)C)o1 [OU-0000840, Ranitidine HCl]  5.25
6. CC(C)NCC(O)c1ccc(NS(C)(=O)=O)cc1 (stereo not shown) [OU-0032507, Sotalol HCl]  3.55
7. NC(N)=Nc1nc(CSCCC(N)=NS(N)(=O)=O)cs1 [OU-0000841, Famotidine]  2.86
8. CC[C@H]1CN2CCc3cc(OC)c(OC)cc3[C@@H]2C[C@@H]1C[C@H]1NCCc2cc(OC)c(OC)cc21.Cl.Cl [OU-0032504, Emetine DIHCl]  1.17

The compounds below were run on P. aeruginosa PΔ3-Pore cells (assay: LC–MS quantification of intracellular accumulation, PΔ3-Pore). Conditions: 1 min incubation, 10-80 µM.
Procedure: as §1, §2, §3, §4

In order of rising “Concentration slopes of accumulation, PΔ3-Pore_1 min” value:
1. CC[C@H]1CN2CCc3cc(OC)c(OC)cc3[C@@H]2C[C@@H]1C[C@H]1NCCc2cc(OC)c(OC)cc21.Cl.Cl [OU-0032504, Emetine DIHCl]  1.71
2. CNC(=C[N+](=O)[O-])NCCSCc1ccc(CN(C)C)o1 [OU-0000840, Ranitidine HCl]  5.13
3. NC(N)=Nc1nc(CSCCC(N)=NS(N)(=O)=O)cs1 [OU-0000841, Famotidine]  6.27
4. CCN1CCCC1CNC(=O)c1cc(S(N)(=O)=O)ccc1OC.Cl (stereo not shown) [OU-0032505, Sulpiride HCl]  7.14
5. COc1ccc2cc1Oc1ccc(cc1)C[C@H]1c3cc(c(OC)cc3CCN1C)Oc1c(OC)c(OC)cc3c1[C@H](C2)N(C)CC3 [OU-0032506, Tetrandrine]  11.59
6. CC(C)NCC(O)c1ccc(NS(C)(=O)=O)cc1 (stereo not shown) [OU-0032507, Sotalol HCl]  15.87
7. O=C1NC[C@@H](CCC2CCCCC2)N[C@H]1Cc1cc(F)cc(F)c1 [OU-0032508]  20.49
8. CCCC[C@H]1CNC(=O)[C@H](Cc2cc(F)cc(F)c2)N1 [OU-0032509]  27.36

Same assay, conditions: 40 min incubation, 10-80 µM

In order of rising “Concentration slopes of accumulation, PΔ3-Pore_40min” value:
1. CNC(=C[N+](=O)[O-])NCCSCc1ccc(CN(C)C)o1 [OU-0000840, Ranitidine HCl]  1.37
2. CC[C@H]1CN2CCc3cc(OC)c(OC)cc3[C@@H]2C[C@@H]1C[C@H]1NCCc2cc(OC)c(OC)cc21.Cl.Cl [OU-0032504, Emetine DIHCl]  1.61
3. NC(N)=Nc1nc(CSCCC(N)=NS(N)(=O)=O)cs1 [OU-0000841, Famotidine]  4.45
4. CCN1CCCC1CNC(=O)c1cc(S(N)(=O)=O)ccc1OC.Cl (stereo not shown) [OU-0032505, Sulpiride HCl]  7.60
5. COc1ccc2cc1Oc1ccc(cc1)C[C@H]1c3cc(c(OC)cc3CCN1C)Oc1c(OC)c(OC)cc3c1[C@H](C2)N(C)CC3 [OU-0032506, Tetrandrine]  8.93
6. CC(C)NCC(O)c1ccc(NS(C)(=O)=O)cc1 (stereo not shown) [OU-0032507, Sotalol HCl]  9.07
7. O=C1NC[C@@H](CCC2CCCCC2)N[C@H]1Cc1cc(F)cc(F)c1 [OU-0032508]  21.97
8. CCCC[C@H]1CNC(=O)[C@H](Cc2cc(F)cc(F)c2)N1 [OU-0032509]  24.02

The compounds below were run on P. aeruginosa PΔ3 cells (assay: not given). Conditions: 1 min incubation, 10-80 µM.
Procedure: as §1, §2, §3, §4

In order of falling “Concentration slopes of accumulation, PΔ3_1 min” value:
1. CCCC[C@H]1CNC(=O)[C@H](Cc2cc(F)cc(F)c2)N1 [OU-0032509]  14.12
2. O=C1NC[C@@H](CCC2CCCCC2)N[C@H]1Cc1cc(F)cc(F)c1 [OU-0032508]  14.00
3. COc1ccc2cc1Oc1ccc(cc1)C[C@H]1c3cc(c(OC)cc3CCN1C)Oc1c(OC)c(OC)cc3c1[C@H](C2)N(C)CC3 [OU-0032506, Tetrandrine]  7.92
4. CCN1CCCC1CNC(=O)c1cc(S(N)(=O)=O)ccc1OC.Cl (stereo not shown) [OU-0032505, Sulpiride HCl]  6.18
5. NC(N)=Nc1nc(CSCCC(N)=NS(N)(=O)=O)cs1 [OU-0000841, Famotidine]  4.40
6. CC(C)NCC(O)c1ccc(NS(C)(=O)=O)cc1 (stereo not shown) [OU-0032507, Sotalol HCl]  3.77
7. CNC(=C[N+](=O)[O-])NCCSCc1ccc(CN(C)C)o1 [OU-0000840, Ranitidine HCl]  2.62
8. CC[C@H]1CN2CCc3cc(OC)c(OC)cc3[C@@H]2C[C@@H]1C[C@H]1NCCc2cc(OC)c(OC)cc21.Cl.Cl [OU-0032504, Emetine DIHCl]  1.07

Same assay, conditions: 40 min incubation, 10-80 µM

In order of rising “Concentration slopes of accumulation, PΔ3_40 min” value:
1. CC[C@H]1CN2CCc3cc(OC)c(OC)cc3[C@@H]2C[C@@H]1C[C@H]1NCCc2cc(OC)c(OC)cc21.Cl.Cl [OU-0032504, Emetine DIHCl]  0.76
2. CC(C)NCC(O)c1ccc(NS(C)(=O)=O)cc1 (stereo not shown) [OU-0032507, Sotalol HCl]  2.90
3. CNC(=C[N+](=O)[O-])NCCSCc1ccc(CN(C)C)o1 [OU-0000840, Ranitidine HCl]  3.53
4. NC(N)=Nc1nc(CSCCC(N)=NS(N)(=O)=O)cs1 [OU-0000841, Famotidine]  4.38
5. COc1ccc2cc1Oc1ccc(cc1)C[C@H]1c3cc(c(OC)cc3CCN1C)Oc1c(OC)c(OC)cc3c1[C@H](C2)N(C)CC3 [OU-0032506, Tetrandrine]  5.95
6. CCN1CCCC1CNC(=O)c1cc(S(N)(=O)=O)ccc1OC.Cl (stereo not shown) [OU-0032505, Sulpiride HCl]  6.27
7. O=C1NC[C@@H](CCC2CCCCC2)N[C@H]1Cc1cc(F)cc(F)c1 [OU-0032508]  12.40
8. CCCC[C@H]1CNC(=O)[C@H](Cc2cc(F)cc(F)c2)N1 [OU-0032509]  18.21
